Test results taken from patent US20060241037A1, “Compositions comprising trefoil factor family peptides and/or mucoadhesives and proton pump ihhibitor prodrugs” (ALLERGAN INC., priority 2003, published 2006).

Assays:
[1] = Pharmacokinetic study in dogs (oral / intravenous), systemic half-life by LC-MS/MS; assay type: in vivo, dogs (beagle); design: key to T1/2 Prodrug: NC: plasma concentration of prodrug was too low to calculate half-life, or undetected; conditions: for T1/2 Prodrug / T1/2 PPI / half-life: Dog, SD in parenthesis; for T1/2 Prodrug: systemic half-life of intact prodrug; for T1/2 PPI / half-life: systemic half-life of the proton pump inhibitor; for half-life: beagle, blood, po, read-out: T1/2 PPI (converted); for t1/2: systemic half-life of parent PPI in dogs after oral administration
Description: (§1) Blood concentrations of the compounds omeprazole, lansoprazole, pantoprazole, rabeprazole, and test compounds were quantified using an achiral liquid chromatography tandem mass spectrometry method (LC-MS/MS). Systemic pharmacokinetic parameters were determined for omeprazole or lansoprazole using non-compartmental analysis in Watson® version 6.3, available from InnaPhase Corporation, Philadelphia, Pa.

[2] = Pharmacokinetic study in rats (oral / intravenous), systemic half-life by LC-MS/MS; assay type: in vivo, rats (Sprague-Dawley); design: key to T1/2 Prodrug: NC: plasma concentration of prodrug was too low to calculate half-life, or undetected; conditions: Rat, SD in parenthesis; for T1/2 PPI: systemic half-life of the proton pump inhibitor; for T1/2 Prodrug: systemic half-life of intact prodrug
Description: as §1

Caco-2 cells = assay: Membrane permeability (Papp) across Caco-2 cell monolayer, apical to basolateral; assay type: in vitro ADME; conditions: Caco-2, apical to basolateral, 10 μM, 37° C.
Description: Determination of membrane permeability in all examples described herein was accomplished by the following procedure. This procedure is also used to determine whether a given prodrug falls within the scope of those claims given herein which relate to membrane permeability.
Caco-2 cells were seeded on Costar™ 12 mm diameter, 0.4 μm pore size transwell filters, and were cultured at 37° C., 5% CO2 in a humidified tissue culture chamber.
DMEM was equilibrated as a transport buffer in 37° C. water bath an hour before experiment. The cells were then equilibrated in transport buffer for 1 hr at 37° C.
Dosing solution (10 μM) was prepared by adding a 20 μL aliquot of a 10 mM stock solution of the prodrug to 20 mL of transport buffer.
Transport across Caco-2 cell monolayer was measured at 37° C., in the apical to basolateral direction (n=3).
Transport buffer was removed from both apical and basolateral compartment of filters. Dosing solution (0.2 mL) was added to the apical compartment of the cell layers on transwell filters, and 0.8 ml fresh pre-warmed transport buffer was added to basolateral compartment. Timing was started for transport, and at 5, 20, and 60 min after transport started, sample fluid (400 μL) was collected from the basolateral compartment. Fresh transport buffer (400 μL) was added back to the basolateral compartment, and the fluid was thoroughly mixed.
The apparent permeability coefficient (Papp, cm/sec), otherwise known herein as the membrane permeability, is determined from the following relationship: Papp=J/(ACo) where J (pmol/min) is the transport rate, meaning the rate of prodrug movement through the cell layer, A (cm^2) is the filter surface area, and Co (μM) is the initial dosing concentration.
Lucifer yellow (LY) was used as a paracellular permeability reference standard to determine integrity of cell layers used in the experiments. […] Fluorescence level in basolateral fluid sampled at 5, 20, and 60 min post dose was determined using Fluostar Galaxy (BMG Labtechnologies, Durham, N.C.) at excitation/emission wavelengths of 485/520 nm. […]

COCCCOc1ccnc(C[S+]([O-])c2nc3ccccc3n2S(=O)(=O)c2ccc(C(=O)O)cc2)c1C (stereo not shown) [Compound 33]
T1/2 Prodrug [1]: 44.8 min | T1/2 PPI [1]: 53.6 min

COc1ccc(C(=O)O)cc1S(=O)(=O)n1c([S+]([O-])Cc2nccc(OCC(F)(F)F)c2C)nc2ccccc21 (stereo not shown) [Compound 14]
T1/2 PPI ([2]; in h): 0.536 (0.217) | T1/2 Prodrug [1]: 7.08 min | T1/2 PPI [1]: 83.4 min

COc1ccc2[nH]c([S+]([O-])Cc3ncc(C)c(OC)c3C)nc2c1 (stereo not shown) [Omeprazole, reference compound]
half-life [1]: 41.8 min | t1/2 [1]: 42 min

Cc1c(OCC(F)(F)F)ccnc1C[S+]([O-])c1nc2ccccc2n1S(=O)(=O)c1ccc(OCC(=O)O)c(OCC(=O)O)c1 (stereo not shown) [Compound 35]
T1/2 Prodrug [2]: NC | T1/2 PPI ([2]; in h): 1.84 (0.87)

Cc1cc(OCC(=O)O)cc(C(C)C)c1S(=O)(=O)n1c([S+]([O-])Cc2nccc(OCC(F)(F)F)c2C)nc2ccccc21 (stereo not shown) [Compound 17]
T1/2 Prodrug [1]: 89.4 min | T1/2 PPI [1]: 67.8 min

COCCCOc1ccnc(C[S+]([O-])c2nc3ccccc3n2S(=O)(=O)c2cccc(C(=O)O)c2)c1C (stereo not shown) [Compound 30]
T1/2 Prodrug [1]: 67.2 min | T1/2 PPI [1]: 29.5 min

COCCCOc1ccnc(C[S+]([O-])c2nc3ccccc3n2S(=O)(=O)c2c(C)cc(OCC(=O)O)cc2C)c1C (stereo not shown) [Compound 32]
T1/2 Prodrug [1]: 31.6 min | T1/2 PPI [1]: 91.2 min

Cc1c(OCC(F)(F)F)ccnc1C[S+]([O-])c1nc2ccccc2n1S(=O)(=O)c1ccc(C(=O)O)cc1 (stereo not shown) [Compound 36]
T1/2 Prodrug [2]: NC | T1/2 PPI ([2]; in h): 0.389 (0.085)

Cc1c(OCC(F)(F)F)ccnc1C[S+]([O-])c1nc2ccccc2n1S(=O)(=O)c1ccc(CC(=O)O)cc1 (stereo not shown) [Compound 9]
Permeability (Caco-2 cells): 0.34 ×10⁻⁶ cm/s | T1/2 Prodrug [2]: NC | T1/2 PPI ([2]; in h): 0.341 (0.151) | T1/2 Prodrug [1]: NC | T1/2 PPI [1]: 53.6 min | t1/2 [1]: 53.4 min

Cc1c(OCC(F)(F)F)ccnc1C[S+]([O-])c1nc2ccccc2n1S(=O)(=O)c1ccc(OCC(C)(C)C(=O)O)cc1 (stereo not shown) [Compound 11]
T1/2 Prodrug [2]: NC | T1/2 PPI ([2]; in h): 0.933 (1.009) | T1/2 Prodrug [1]: NC | T1/2 PPI [1]: 0.873 (0.288)

Cc1c(OCC(F)(F)F)ccnc1C[S+]([O-])c1nc2ccccc2n1S(=O)(=O)c1ccc(CC(=O)O)c(CC(=O)O)c1 (stereo not shown) [Compound 12]
T1/2 Prodrug [1]: NC | T1/2 PPI [1]: 55.9 min

Cc1ccc(C(=O)O)cc1S(=O)(=O)n1c([S+]([O-])Cc2nccc(OCC(F)(F)F)c2C)nc2ccccc21 (stereo not shown) [Compound 13]
T1/2 Prodrug [2]: NC | T1/2 PPI ([2]; in h): 2.35 (1.22) | T1/2 Prodrug [1]: 7.32 min | T1/2 PPI [1]: 106 min

Cc1c(OCC(F)(F)F)ccnc1C[S+]([O-])c1nc2ccccc2n1S(=O)(=O)c1ccc(C(=O)O)cc1 (stereo not shown) [Compound 18]
T1/2 Prodrug [1]: 5.39 min | T1/2 PPI [1]: 54.5 min

Cc1c(OCC(F)(F)F)ccnc1C[S+]([O-])c1nc2ccccc2[nH]1 (stereo not shown) [Lansoprazole, reference compound]
half-life [1]: 34.4 min | t1/2 [1]: 34.2 min

Cc1c(OCC(F)(F)F)ccnc1C[S+]([O-])c1nc2ccccc2n1S(=O)(=O)c1cccc(C(=O)O)c1 (stereo not shown) [Compound 7]
Permeability (Caco-2 cells): 0.16 ×10⁻⁶ cm/s | T1/2 Prodrug [2]: NC | T1/2 PPI ([2]; in h): 1.93 (1.41) | T1/2 Prodrug [1]: 12.4 min | T1/2 PPI [1]: 53.6 min | t1/2 [1]: 53.4 min

Cc1c(OCC(F)(F)F)ccnc1C[S+]([O-])c1nc2ccccc2n1S(=O)(=O)c1ccc(OCC(=O)O)cc1 (stereo not shown) [Compound 10]
T1/2 Prodrug [1]: NC | T1/2 PPI [1]: 0.989 (0.307)

Cc1c(OCC(F)(F)F)ccnc1C[S+]([O-])c1nc2ccccc2n1S(=O)(=O)c1ccc(C(=O)O)c(OCC(=O)O)c1 (stereo not shown) [Compound 16]
T1/2 Prodrug [2]: NC | T1/2 PPI ([2]; in h): 1.86 (0.74) | T1/2 Prodrug [1]: NC | T1/2 PPI [1]: 60 min

COc1ccc(S(=O)(=O)n2c([S+]([O-])Cc3nccc(OCC(F)(F)F)c3C)nc3ccccc32)cc1CCC(=O)O (stereo not shown) [Compound 38]
T1/2 Prodrug ([2]; in h): 1.04 (0.35) | T1/2 PPI ([2]; in h): 1.43 (0.42)

COc1ccc(S(=O)(=O)n2c([S+]([O-])Cc3nccc(OCC(F)(F)F)c3C)nc3ccccc32)cc1C(=O)O (stereo not shown) [Compound 8]
Permeability (Caco-2 cells): 0.23 ×10⁻⁶ cm/s | T1/2 Prodrug [2]: NC | T1/2 PPI ([2]; in h): 1.80 (1.20) | T1/2 Prodrug [1]: NC | T1/2 PPI [1]: 64.8 min | t1/2 [1]: 66 min

Cc1cc(C(=O)O)ccc1S(=O)(=O)n1c([S+]([O-])Cc2nccc(OCC(F)(F)F)c2C)nc2ccccc21 (stereo not shown) [Compound 37]
T1/2 Prodrug [2]: NC | T1/2 PPI ([2]; in h): 2.19 (0.80)

Cc1ccc(S(=O)(=O)n2c([S+]([O-])Cc3nccc(OCC(F)(F)F)c3C)nc3ccccc32)cc1CCC(=O)O (stereo not shown) [Compound 19]
T1/2 Prodrug [1]: 110 min | T1/2 PPI [1]: 29 min

COCCCOc1ccnc(C[S+]([O-])c2nc3ccccc3n2S(=O)(=O)c2cc(C(=O)O)ccc2C)c1C (stereo not shown) [Compound 31]
T1/2 Prodrug [1]: 50.6 min | T1/2 PPI [1]: 51.3 min

Cc1c(OCC(F)(F)F)ccnc1C[S+]([O-])c1nc2ccccc2n1S(=O)(=O)c1ccc(CC(=O)O)cc1C(C)C (stereo not shown) [Compound 15]
T1/2 Prodrug [1]: NC | T1/2 PPI [1]: 55.4 min

Cc1cc(OCC(=O)O)cc(C)c1S(=O)(=O)n1c([S+]([O-])Cc2nccc(OCC(F)(F)F)c2C)nc2ccccc21 (stereo not shown) [Compound 34]
T1/2 Prodrug [2]: NC | T1/2 PPI ([2]; in h): 1.11 (0.71)
